From patent publication US6515025B2, “Use of ethynyl alanine amino diol compounds to inhibit enzymatic conversion of angiotensinogen to angiotensin I” (Pharmacia Corporation, priority 1991, dated 2003)

How the values were obtained:
Assay type in all cases: biochemical
[1] = molecular target: T1, renin (Marmoset Monkey plasma) (Callithrix jacchus, UniProt Q9TSZ1); assay: Renin inhibitor species specificity, marmoset plasma renin activity
T1 construct: the animal plasma is the source of both the renin substrate and the renin enzyme; from tissue; host or cells: pooled marmoset plasma
T1 sequence (Q9TSZ1 61-400): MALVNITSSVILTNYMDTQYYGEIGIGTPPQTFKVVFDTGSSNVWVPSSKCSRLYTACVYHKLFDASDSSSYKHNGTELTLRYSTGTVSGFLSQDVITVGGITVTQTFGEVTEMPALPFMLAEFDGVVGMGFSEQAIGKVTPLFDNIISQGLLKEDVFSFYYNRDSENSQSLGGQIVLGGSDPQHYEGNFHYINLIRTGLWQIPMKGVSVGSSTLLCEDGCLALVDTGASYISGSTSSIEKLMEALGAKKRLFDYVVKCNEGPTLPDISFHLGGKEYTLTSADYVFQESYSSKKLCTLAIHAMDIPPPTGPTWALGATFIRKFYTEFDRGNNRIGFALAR
Method: (§1) Blood was collected in a 10 ml Becton Dickinson vacutainer tube with 0.1 ml of 15% EDTA (K3) solution (15 mg) from normal animals or high renin animals; i.e., those pre-treated with 5 mg/kg of Lasix® intramuscularly 2 times within a 6 hour interval 24 hours prior to bleeding. The blood was then centrifuged at 2500 RPM for 20 minutes and the plasma from the various species respectively pooled, aliquoted and stored in the freezer. The human plasma source was taking a prescription of an angiotensin converting enzyme inhibitor.
(§2) The plasma renin activity assay is a modification of the human renin inhibition test in that the animal plasma is the source of both the renin substrate and the renin enzyme. In a total volume of 0.1 ml, 90 mM Tris-acetate buffer, pH 7.5, 12 mM sodium EDTA, 0.012 mg/ml neomycin sulfate, 0.9 mg/ml bovine serum albumin, 1.61 mM phenylmethyl sulfonyl fluoride, 4 mM 8-hydroxyquinoline and 0.09 ml of the animal or human plasmas were incubated for 2 hours at 37° C. in a shaking water bath or at 4° C. in an ice bath in the presence or absence of renin inhibitors. The produced angiotensin I was determined by radioimmunoassay (New England Nuclear kit).
(§3) The amount of angiotensin I generated during the 2 hours at 4° C. was usually less than 5% of that activity produced at 37° C.; however, the 4° C. background values were nevertheless subtracted from the 37° C. ones for the 100% activity values. The renin inhibitors were assayed in duplicate using 5 concentrations and the data is expressed as a percent of the 100% total renin activity.

[2] = molecular target: T2, renin (human plasma) (Homo sapiens, UniProt P00797); assay: Renin inhibitor species specificity, human plasma renin activity
T2 construct: the animal plasma is the source of both the renin substrate and the renin enzyme; from tissue
T2 sequence (P00797 67-406): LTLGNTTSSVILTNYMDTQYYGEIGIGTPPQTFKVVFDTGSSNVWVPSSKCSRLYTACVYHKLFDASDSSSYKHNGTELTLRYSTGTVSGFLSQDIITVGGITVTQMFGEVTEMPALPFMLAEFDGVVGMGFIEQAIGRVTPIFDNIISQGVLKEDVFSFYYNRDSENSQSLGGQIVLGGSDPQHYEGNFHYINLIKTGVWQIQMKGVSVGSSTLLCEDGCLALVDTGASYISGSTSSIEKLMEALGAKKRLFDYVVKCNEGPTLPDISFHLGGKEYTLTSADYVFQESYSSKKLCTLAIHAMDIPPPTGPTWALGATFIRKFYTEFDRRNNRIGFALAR
Method: as §1, §2, §3

[3] = molecular target: T3, renin (Rat plasma) (Rattus norvegicus, UniProt P08424); assay: Renin inhibitor species specificity, rat plasma renin activity
T3 construct: the animal plasma is the source of both the renin substrate and the renin enzyme; from tissue; host or cells: pooled rat plasma
T3 sequence (P08424 65-402): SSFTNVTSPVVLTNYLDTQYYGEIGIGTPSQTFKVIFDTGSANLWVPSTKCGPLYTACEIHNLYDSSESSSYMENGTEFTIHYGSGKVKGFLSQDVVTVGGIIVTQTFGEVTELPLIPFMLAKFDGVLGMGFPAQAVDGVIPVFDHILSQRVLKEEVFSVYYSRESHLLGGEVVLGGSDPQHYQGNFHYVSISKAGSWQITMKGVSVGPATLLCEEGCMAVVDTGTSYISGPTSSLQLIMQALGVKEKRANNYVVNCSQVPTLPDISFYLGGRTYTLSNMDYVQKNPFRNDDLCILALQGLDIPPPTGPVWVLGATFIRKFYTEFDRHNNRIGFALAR
Method: as §1, §2, §3

% of Total Renin Activity ([1]; 0.25 nM): 94% | % of Total Renin Activity ([1]; 1 nM): 75% | % of Total Renin Activity ([1]; 4 nM): 42% | % of Total Renin Activity ([1]; 16 nM): 11% | % of Total Renin Activity ([2]; 1 nM): 90% | % of Total Renin Activity ([2]; 4 nM): 50% | % of Total Renin Activity ([2]; 16 nM): 10% | % of Total Renin Activity ([3]; 100 nM): 93% | % of Total Renin Activity ([3]; 400 nM): 76% | % of Total Renin Activity (range only) ([3]; 1600 nM): (23-34)
SMILES: C#CC[C@H](NC(=O)C(CC(=O)N(C)CCN(C)C)Cc1ccccc1)C(=O)NC(CC1CCCCC1)[C@@H](O)C(O)CC(C)C (relative stereo) [Example 1, N1-[1R*-[[[1S,1R*-(cyclohexylmethyl)-2S*,3R*-dihydroxy-5-methylhexyl]amino]carbonyl]-3-butynyl]-N4-[2-(dimethylamino)ethyl]-N4-methyl-2S*-(phenylmethyl)butanediamide]
